Experimental data as given in a melting point compilation (Tetko et al.; mined from patent text by program, amines drawn as free bases though some values may be those of a salt).

Point of comparison: `Nc1ccc(-c2ccc(C(F)(F)F)cc2)cn1`, melting point 130 °C. Against it:
- CN(C)c1nccc2c1nnn2Cc1ccccc1F — higher, 248 to 252 °C
- NC(=O)CCc1c[nH]c2ccccc12 — higher, 140 °C
- O=[N+]([O-])c1nccn1CC(O)CN1CC1 (stereo not given) — lower, 118 to 120 °C
- Cc1nc(Cl)c(-c2ccc(F)cc2)n1-c1ccc(Cl)cc1 — lower, 124 to 126 °C
- CC1CSc2c(-c3ccccc3)c3ccccc3c(=O)n21 (stereo not given) — higher, 204 to 208 °C
- COc1ccccc1Cn1c(=O)c2c(N3CCNCC3)cc(Cl)cc2n(Cc2ccccc2)c1=O — lower, 122 to 125 °C
- CCOC(=O)CC(=O)CNC(=O)CCc1cc(-c2ccc(C(F)(F)F)cc2)oc1C — higher, 131 to 133 °C
- Cc1cc(C)c(C(=O)ON2C(C)(C)c3ccccc3C2(C)C)c(C)c1 — higher, 181 to 183 °C
- CCCCc1nc2c(N)nc3ccc(OCc4ccccc4)cc3c2n1C — higher, 198 to 199 °C
- CC(C)(C)OC(=O)OCC(COC(=O)OC(C)(C)C)OCn1cnc2c(=O)[nH]c(N)nc21 — higher, 192 to 193 °C
- Cc1[nH]ncc1C(=O)Nc1ccc(OCC(C)(C)C)c(C#N)c1 — higher, 133 to 134 °C
- Cc1ccc(C(=S)c2ccc3n2CCCC3C#N)cc1 (stereo not given) — lower, 118 to 119 °C
- Nc1nnc(-c2cccc(OCc3c(Cl)cccc3Cl)c2)c(N)n1 — higher, 190 to 192 °C
- CCCn1cc2c(C3C(=O)Nc4ccc(Br)cc43)nc(NCc3ccncc3)nc2n1 (stereo not given) — higher, > 300 °C
- CCn1c(=O)c2[nH]c(/C=C/c3ccc(C(F)(F)F)cc3)nc2n(CC)c1=O — higher, > 280 °C
- Cc1c(F)cccc1C(=O)Nc1ccc(C(=O)N2Cc3ccccc3Cc3ccccc32)cc1Cl — higher, 254 to 256 °C
- CCN1CCC(CCC2CCN(c3ncnc4cc(OC)c(OC)cc34)CC2)S1(=O)=O (stereo not given) — the same, 130 °C
- O=C(Nc1ccc2[nH]ccc2c1)C(=O)N1CCC(Cc2ccc(F)cc2)CC1 — lower, 80 to 82 °C
- CCOC(=O)NC(=O)N(O)Cc1c(C)n(C(=O)c2ccc(Cl)cc2)c2ccc(OC)cc12 — higher, 148 °C
- CNC(=O)Oc1ccc(NC(=O)C(C)Oc2ccccc2)c(C)c1 (stereo not given) — lower, 123 to 125 °C
- O=[N+]([O-])c1ccc(-c2ccc(S(=O)c3ccc(Cl)c([N+](=O)[O-])c3)cc2)cc1 (stereo not given) — higher, 220 to 222 °C
- O=C(O)c1cccc2c(Cl)c3ccccc3cc12 — higher, 275 to 277 °C
- Cc1nc2cc(NC(=O)c3cc4cc(F)cnc4n3Cc3ccncc3)ccc2n1C — higher, 263 to 265 °C
- CCOC(=O)C1CCc2cc(NS(C)(=O)=O)ccc2O1 (stereo not given) — lower, 111 °C
- CCOC(=O)CCCn1c(=O)n(CCN2CCN(c3ccccc3OC)CC2)c(=O)c2cscc21 — lower, 108 to 110 °C
- CC(C)CSc1c(-c2ccc(S(C)(=O)=O)cc2)cnn(CC(F)(F)F)c1=O — higher, 135 to 138 °C
- CCOC(=O)Cc1ccc2c(c1)CC(NC(=O)OC)CC2 (stereo not given) — lower, 89 to 90 °C
- CNC(=O)c1cccc(C(=O)OC)c1 — not separable, 128 to 130 °C
- COC(=O)Cc1ccc(OCCN2CCN(c3cc(Cl)nnc3Cl)CC2)cc1 — lower, 84 to 86 °C
- O=C1c2ccccc2CN1CCCN1CC=C(c2ccccc2)CC1 — lower, 104 °C
- CCn1c(=O)c(-c2ccc3ccccc3c2)cc2cnc(Nc3ccccc3)nc21 — higher, 254 to 256 °C
- N[C@H]1CC[C@@H](Oc2ccc3[nH]ncc3c2)CC1 — higher, 144 to 146 °C
- CCOC(=O)C(Cl)=NNc1ccccc1Br — lower, 106 °C
- O=C(O)c1nc(C2CC2)nc(NCc2ccco2)c1Cl — higher, 150 to 152 °C
- CC(=O)c1ccc(Oc2ncccc2C(=O)O)cc1 — higher, 184 to 186 °C
- CCOc1ncc(C(C)=O)cc1C(=O)O — lower, 117 to 118 °C
- COc1ccc(C2Sc3c(ccc4ccccc34)N(CCN(C)C)C(=O)C2O)cc1 (stereo not given) — higher, 160 to 161 °C
- CCOC(=O)CCCCC(=O)c1[nH]c(=O)[nH]c1C — higher, 170 to 172 °C
- N#Cc1ccc(N2CCC(CO)CC2)cc1 — higher, 148 to 150 °C
- O=C(O)C1CCc2ccccc2N1C(=O)CS (stereo not given) — lower, 85 to 96 °C
- Cc1ccccc1-c1c2c(cc3ccc(O)cc13)-c1ccc(O)cc1CO2 — higher, 193 to 196 °C
- CC#CCOc1ccc(S(=O)(=O)NC(Cc2c[nH]c3ccc(C)cc23)C(=O)O)cc1 (stereo not given) — lower, 45 to 46 °C
- O=C(O)C=CC(=O)c1ccc(F)cc1 — not separable, 130 to 132 °C
- CCOC(=O)c1cc(Nc2cccc(Cl)c2Cl)c(C(=O)OCC)cc1Nc1cccc(Cl)c1Cl — higher, 265 to 266 °C
- Cc1ccc(-c2coc3cc(O)c(O)cc3c2=O)cc1 — higher, 280 °C
- CCCCNC(=O)NS(=O)(=O)c1ccc(CCNC(=O)N2Cc3ccc(C)cc3C2=O)cc1 — higher, 169 to 171 °C
- CCCCc1c(C(=O)OCC)[nH]c2c(Br)cccc2c1=O — lower, 88 °C
- CCNC(=S)NNC(=O)C(F)(F)F — higher, 170 °C
- O=C(O)c1ccc(-c2nc(-c3ccc(Cl)s3)co2)cc1 — higher, 300 °C
- CCCN1C(=O)N2CCCN=C2c2c1ncn2C — lower, 107 to 109 °C
- N#CCCn1ncccc1=O — lower, 75 to 76 °C
- NC(=O)C1CCC2(CC1)OCCO2 — higher, 167 to 170 °C
- CC1(C)Oc2cc3nonc3cc2C(N2CCCC2=O)C1O (stereo not given) — higher, 242 to 244 °C
- O=C(O)CCCCCNC(=O)C(CS)Cc1ccccc1 (stereo not given) — lower, 58 to 60 °C
- COc1cc2cc3ncc(C#N)c(Nc4ccc(F)c(Cl)c4)c3cc2cc1OC — higher, > 280 °C
- O=C(Nc1ccc(CN2CCOCC2)c2ccccc12)c1cc(F)cc(N2CCOCC2)c1 — higher, 192 to 193 °C
- CC(=O)N(C)c1cccc(C(=O)C=CN(C)C)c1 — higher, 146 to 148 °C
- OC(c1ccccc1)c1nc(-c2ccncc2)cs1 (stereo not given) — higher, 146 to 147 °C
- Cc1cc2c(cc1C(F)(F)F)N(C(=O)Nc1ccc(OCc3ccccn3)nc1)CC2 — higher, 219 to 220 °C
- OC(c1cccc(-c2nnc(Nc3ccc(Cl)c(Cl)c3)s2)c1)c1cccc(C(F)(F)F)c1 (stereo not given) — higher, 191 to 192 °C
- OCc1cccc(-c2ccc3nc(-c4coc5ccccc45)cn3c2)c1 — higher, 150 to 152 °C
- COc1ccc2ccc(C(=O)NC(C)C)c(OC(C)C)c2c1 — lower, 62 to 64 °C
- Cc1nc(-c2c(C#N)nn(-c3c(Cl)cc(C(F)(F)F)cc3Cl)c2N)cs1 — higher, 226 to 228 °C
- CN1CCN(N=C2CC(c3ccc(C(F)(F)F)cc3)Cc3[nH]c4ccc(Cl)cc4c(=O)c32)CC1 (stereo not given) — higher, 330 °C
- Cc1c(/C=C/C(=O)O)cnn1C — higher, 217 to 219 °C
- COC(=O)c1cnc(Nc2cc(N3CCN(CCO)CC3)nc(C)n2)s1 — higher, 242 °C
- COc1ccccc1-c1cc(C(F)(F)F)nn1-c1ccc(S(N)(=O)=O)c(F)c1 — higher, 159 to 160 °C
- CCOC(=O)c1ccc(CCN(C)CCCC(C#N)(C(=O)OC)c2ccc(OC)c(OC)c2)cc1 (stereo not given) — lower, 88 to 89 °C
- Cc1ccc(C2=CCC(=O)CC2)cc1 — lower, 72 to 74 °C
- O=C(O)c1ccc(C=C2CCc3cc(OCCn4ccnc4)ccc3C2=O)cc1 — higher, 267 to 268 °C
- Oc1ccc2c(c1)[C@H](O)[C@H](Oc1cccnc1)CO2 (relative stereo) — higher, 194 to 197 °C
- COc1ccc2[nH]c(/C=C/C=O)cc2c1 — higher, 145 to 147 °C
- Cn1nc(-n2ncc(C(N)=S)c2N)c(Cl)c1OC(F)F — higher, 156 °C
- CCOC(=O)C=CC=Cc1ccc([N+](=O)[O-])cc1 — higher, 150 to 152 °C
